# Activity calls are given as the source filed them. How the calls were made is not given here.
# Test system: CCHFV L protein vOTU protease domain (Crimean-Congo hemorrhagic fever virus)
# Assay: CCHFV vOTU inhibition, late-stage follow-up, biochemical, fluorescence, Ub-AMC substrate, assay provider (AID 743500)
# Details: Recombinant vOTU, Ub-AMC cleavage fluorescence, stronger effect = higher value
smiles,measurement,setting,value
COc1cc(Br)c(C(=O)c2nccc3cc(OC)c(OC)cc23)cc1OC,inhibition,at 1.13 µM,19.1% (inactive)
O=C(/C=C/c1ccc(O)cc1)c1ccc(NC2=C(N3CCCCC3)C(=O)c3ccccc3C2=O)cc1,inhibition,at 10.17 µM,41%
O=C1C=C(Nc2ccccc2)c2ccccc2C1=O,inhibition,at 15.55 µM,80.2%
COc1ccc2noc3c2c1C(=O)c1ccccc1-3,inhibition,at 6.28 µM,12.4% (inactive)
CC1(C)C=C2C(=NN(c3ccccc3)C(N)=C2C#N)CO1,inhibition,at 23.49 µM,82.1%
O=C(NC1=C(NC2CCS(=O)(=O)C2)C(=O)c2ccccc2C1=O)c1ccccc1 (stereo not drawn),inhibition,at 14.2 µM,49.8%
O=C1Cc2ccccc2C(=O)N1Cc1ccccc1,inhibition,at 1.31 µM,49.6%
CCOC(=O)N=Nc1c2ccccc2c2nc3no[nH]c3nc12,inhibition,at 7.75 µM,26.4%
NS(=O)(=O)c1ccc(NC(=O)COC(=O)c2ccc([N+](=O)[O-])s2)cc1,inhibition,at 29.01 µM,42.6%
COC1=C(N)C(=O)c2nc(C)ccc2C1=O,inhibition,at 4.98 µM,71.9%
COC(CNC(=O)c1ccc2c3c(onc13)-c1ccccc1C2=O)OC,inhibition,at 24.19 µM,51.7%
CC1COCC(C)N1C1=C(Cl)C(=O)c2ccccc2C1=O (stereo not drawn),inhibition,at 14.67 µM,23.4%
Cc1ccc(NC2=CC(=O)C(=O)c3ccccc32)cc1,inhibition,at 12.24 µM,85.2%
Nc1cc2c(cc1Br)[nH]c(=O)c1ccccc12,inhibition,at 4.57 µM,12.7% (inactive)
COc1ccccc1NC(=O)COC(=O)c1ccc([N+](=O)[O-])s1,inhibition,at 35.07 µM,53.8%
O=C1Cc2ccccc2C(=O)N1,inhibition,at 0.6 µM,57.1%
NC1=C(Cl)C(=O)c2ccc(S(N)(=O)=O)cc2C1=O,inhibition,at 0.39 µM,63.1%
O=C(c1ccco1)[C@@H]1[C@@H]2C(=O)N(c3ccc(Br)cc3)C(=O)[C@@H]2C2c3ccccc3C=CN21 (stereo partly drawn),inhibition,at 11.01 µM,79.7%
Cc1ccc2c(c1C)-c1c(ccc(C)c1C)C(=O)C2=O,inhibition,at 18.9 µM,66.2%
O=c1[nH]c(Nc2ccccc2)cc2cc(Br)ccc12,inhibition,at 1.45 µM,15.8% (inactive)
O=C(NC1=CC(=O)c2ccccc2C1=O)c1ccccc1,inhibition,at 12.37 µM,48.8%
O=C(COC(=O)c1ccc([N+](=O)[O-])s1)NCc1ccc(F)cc1,inhibition,at 40.58 µM,41%
COc1cc(NC(=O)COC(=O)c2ccc([N+](=O)[O-])s2)cc(OC)c1OC,inhibition,at 21.72 µM,44.2%
CC1CCCC(NC(=O)COC(=O)c2ccc([N+](=O)[O-])s2)C1C (stereo not drawn),inhibition,at 31.32 µM,22.6%
O=C(OCc1nnc(-c2ccccc2)o1)c1ccc([N+](=O)[O-])s1,inhibition,at 26.04 µM,55.6%
CCn1nc(/C=C/c2ccccc2)nc2c(=O)n(C)c(=O)nc1-2,inhibition,at 0.49 µM,99%
Cn1nc(-c2ccccn2)nc2c(=O)n(C)c(=O)nc1-2,inhibition,at 1.16 µM,94%
O=C(COC(=O)c1ccc([N+](=O)[O-])s1)Nc1ccc(F)cc1,inhibition,at 26.34 µM,45.3%
Cc1ccc(N2C(=O)[C@@H]3[C@H](C2=O)C2c4ccccc4C=CN2[C@@H]3C(=O)c2ccco2)cc1 (stereo partly drawn),inhibition,at 5.2 µM,41.3%
NS(=O)(=O)c1ccc(NC2=CC(=O)C(=O)c3ccccc32)cc1,inhibition,at 11.51 µM,71.8%
CCc1cc[n+](C2=C(NS(=O)(=O)c3cccs3)C(=O)c3ccccc3C2=O)cc1,inhibition,at 14.16 µM,18.8% (inactive)
Cc1c(Cl)cnc(NC(=O)COC(=O)c2ccc([N+](=O)[O-])s2)c1Cl,inhibition,at 20.44 µM,55.3%
O=C(COC(=O)c1ccc([N+](=O)[O-])s1)Nc1ncc(C(F)(F)F)cc1Cl,inhibition,at 27.79 µM,42.1%

# Source: PubChem BioAssay AID743500 (The Scripps Research Institute Molecular Screening Center, 2014)
